From US9265837B1, “5α-androstane-3β,5,6β-triol injection and preparation method therefor” (Guangzhou Cellprotek Pharmaceuticals Ltd., priority 2010, dated 2016)

Tests used:
[1] = Acute toxicity (LD50), i.v. via tail vein, one-week observation; settings: both sexes, mouse, in vivo, iv, Kunming mice, YC-6 injection of Example 3 (20 mg/ml)
Description: Kunming mice were caged by weight and randomly divided into 5 groups. Each group had 10 mice, with half males and half females. The YC-6 injection 10 prepared in Example 3 (20 mg/ml) was i.v. administrated via tail vein at different doses. All mice were sacrificed after one-week observation. The toxic reaction and number of death of the animals were recorded every day. LD50 and 95% confidence were calculated.

Solubility in water = format: physicochemical; settings: background statement, no test described

SMILES: C[C@@]12CCC[C@H]1[C@@H]1C[C@@H](O)[C@@]3(O)C[C@@H](O)CC[C@]3(C)[C@H]1CC2 [YC-6, 5α-androstane-3β,5,6β-triol]
- LD50 at 1 week [1]: > 400 mg/kg
- Solubility in water (Solubility in water): low solubility in water
